In ChEMBL document CHEMBL1201862, “PubChem BioAssay data set” (2004):
Blank lines part the entries; values can stand above or below the compound they belong to. Calls of active or inactive are those of the source.

How the values were obtained:
Cytochrome P450 3A4 = Cytochrome P450 3A4 (Homo sapiens, UniProt P08684);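 note: CYP3A4 tested as one member of a cytochrome P450 panel screen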
[1] = Luminescence Cell-Based Dose Retest to Confirm Inhibitors of Cancer Stem Cells. [Related pubchem assays (depositor defined):AID2717, AID2721]; type: functional; settings: Homo sapiens
Cytochrome P450 2C9 = Cytochrome P450 2C9 (Homo sapiens, UniProt P11712)
[2] = inhibitors of intracellular T. cruzi replication, confirmation, NIH3T3 host cells, beta-gal luminescence (AID 2044); type: functional, cell-based;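 note: intracellular parasites grown in NIH/3T3 mouse fibroblasts as host cells; luminescent beta-galactosidase reporter signal from transgenic T. cruzi replicating inside host cells; inhibitors lower the luminescence signal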
[3] = cytotoxicity toward NIH3T3 fibroblasts, dose response, counter-screen, cell-based, ATP luminescence, mouse fibroblasts (AID 2010); type: functional;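 note: cells exposed to compound for about 90 hours before reading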
[4] = target: T1, Rac GTPase-activating protein 1 (Homo sapiens, UniProt Q9H0H5); assay: MgcRacGAP GTPase-activating activity inhibitors, confirmation, biochemical, ADP Hunter fluorescence, primary and confirmatory (AID 624330); type: functional
T1 sequence (Q9H0H5 whole entry): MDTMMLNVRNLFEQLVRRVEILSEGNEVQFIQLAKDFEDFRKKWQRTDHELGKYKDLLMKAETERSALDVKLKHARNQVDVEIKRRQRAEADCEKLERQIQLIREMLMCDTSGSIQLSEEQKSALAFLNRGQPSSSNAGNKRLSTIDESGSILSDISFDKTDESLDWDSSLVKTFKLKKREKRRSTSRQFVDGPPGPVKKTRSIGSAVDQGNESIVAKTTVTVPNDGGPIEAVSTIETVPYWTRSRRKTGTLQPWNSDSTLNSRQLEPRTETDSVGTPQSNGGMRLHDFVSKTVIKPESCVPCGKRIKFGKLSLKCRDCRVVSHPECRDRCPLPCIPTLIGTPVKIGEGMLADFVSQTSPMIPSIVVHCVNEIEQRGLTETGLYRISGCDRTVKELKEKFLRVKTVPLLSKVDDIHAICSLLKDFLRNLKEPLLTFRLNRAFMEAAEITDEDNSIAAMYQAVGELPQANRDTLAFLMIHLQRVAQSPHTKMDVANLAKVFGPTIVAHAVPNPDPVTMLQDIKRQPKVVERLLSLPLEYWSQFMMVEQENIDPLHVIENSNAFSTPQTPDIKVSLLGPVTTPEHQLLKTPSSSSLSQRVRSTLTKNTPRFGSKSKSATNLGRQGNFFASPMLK

[5] = tested on: Streptococcus sp. 'group A'; assay: growth inhibition of control SK(-) GAS strain, dose response, counter-screen for streptokinase expression inhibitor project, luminescence, kanamycin, BacTiterGlo, confirmation (AID 1900); type: functional, organism-based
Streptococcus = assay: Group A Streptococcus viability loss, dose response, counter-screen for streptokinase expression inhibitor project, luminescence, BacTiterGlo (AID 1915); type: functional, organism-based; settings: read-out: EC50;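 note: potency for reduction of bacterial viability or growth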
Cytochrome P450 2C19 = Cytochrome P450 2C19 (Homo sapiens, UniProt P33261); assay: Cytochrome panel assay with activity outcomes. Panel member name: p450-cyp2c19 Compounds with AC50 equal or less than 10 uM are considered active; type: functional
Sequence of Cytochrome P450 2C19 (P33261 whole entry): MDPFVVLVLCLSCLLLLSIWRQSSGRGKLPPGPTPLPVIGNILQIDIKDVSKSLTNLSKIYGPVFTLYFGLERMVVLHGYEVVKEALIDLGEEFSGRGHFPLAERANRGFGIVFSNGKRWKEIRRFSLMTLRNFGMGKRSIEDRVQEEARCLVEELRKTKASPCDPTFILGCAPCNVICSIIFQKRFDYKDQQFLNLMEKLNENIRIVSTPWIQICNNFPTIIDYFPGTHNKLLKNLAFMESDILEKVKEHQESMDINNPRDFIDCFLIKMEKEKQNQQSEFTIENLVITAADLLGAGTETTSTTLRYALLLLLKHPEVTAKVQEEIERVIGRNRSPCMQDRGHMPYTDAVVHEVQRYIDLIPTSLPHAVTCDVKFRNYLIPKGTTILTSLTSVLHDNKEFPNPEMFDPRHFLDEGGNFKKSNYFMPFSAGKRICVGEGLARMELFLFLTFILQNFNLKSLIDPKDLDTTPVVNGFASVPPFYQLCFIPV

Sequence of Cytochrome P450 3A4 (P08684 whole entry): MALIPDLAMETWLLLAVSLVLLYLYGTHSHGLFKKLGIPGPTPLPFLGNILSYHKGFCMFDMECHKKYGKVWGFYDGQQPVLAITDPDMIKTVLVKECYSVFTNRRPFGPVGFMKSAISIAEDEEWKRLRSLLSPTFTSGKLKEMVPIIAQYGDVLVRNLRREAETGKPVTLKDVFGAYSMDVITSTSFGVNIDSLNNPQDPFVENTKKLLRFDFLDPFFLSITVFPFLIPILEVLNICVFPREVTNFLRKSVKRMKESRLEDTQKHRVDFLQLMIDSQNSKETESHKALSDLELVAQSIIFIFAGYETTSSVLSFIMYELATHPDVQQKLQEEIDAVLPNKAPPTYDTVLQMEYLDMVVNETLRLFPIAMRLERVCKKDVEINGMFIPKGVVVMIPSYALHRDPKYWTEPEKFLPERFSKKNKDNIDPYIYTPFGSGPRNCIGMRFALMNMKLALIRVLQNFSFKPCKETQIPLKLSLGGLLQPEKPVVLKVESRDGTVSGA
Sequence of Cytochrome P450 2C9 (P11712 whole entry): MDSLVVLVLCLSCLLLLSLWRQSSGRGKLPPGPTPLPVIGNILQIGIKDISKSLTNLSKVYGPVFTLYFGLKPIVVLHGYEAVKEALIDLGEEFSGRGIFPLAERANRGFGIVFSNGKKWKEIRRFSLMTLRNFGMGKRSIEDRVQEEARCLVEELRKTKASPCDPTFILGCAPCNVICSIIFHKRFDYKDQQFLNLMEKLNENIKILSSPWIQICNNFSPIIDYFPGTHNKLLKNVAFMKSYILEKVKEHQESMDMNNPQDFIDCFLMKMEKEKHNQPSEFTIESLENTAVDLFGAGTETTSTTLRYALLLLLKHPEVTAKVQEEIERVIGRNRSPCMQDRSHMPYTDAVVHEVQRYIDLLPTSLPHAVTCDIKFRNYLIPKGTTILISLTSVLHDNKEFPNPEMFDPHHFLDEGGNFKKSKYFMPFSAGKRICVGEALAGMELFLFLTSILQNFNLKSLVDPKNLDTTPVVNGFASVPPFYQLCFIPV

- AC50 (Cytochrome P450 3A4): 35.5 µM (inconclusive)
SMILES: CC(=O)Nc1ccc(Nc2ncnc3c2cnn3-c2ccccc2)cc1

- AC50 (Cytochrome P450 3A4): 4.47 µM (inconclusive)
SMILES: O=C(Nc1ccccc1C(=O)NCC1CCCO1)c1ccc(Cl)cc1Cl (stereo not drawn)

- AC50 (Cytochrome P450 2C9): 0.398 µM (inconclusive)
SMILES: c1cncc(CNc2nc(-c3ccc4c(c3)OCO4)nc3ccccc23)c1

- AC50 (Cytochrome P450 2C9): 6.31 µM (inconclusive)
SMILES: COc1ccc(-n2nc3cc(C)c(NC(=S)NC(=O)c4ccccc4C)cc3n2)cc1

- IC50 [4]: 109 µM (active)
SMILES: COc1ccc(NC2CCCN(C(=O)c3ccc(CSC)o3)C2)cc1OC (stereo not drawn)

- AC50 (Cytochrome P450 2C19): inconclusive
- AC50 (Cytochrome P450 3A4): 22.4 µM (inconclusive)
- AC50 (Cytochrome P450 2C9): 1.78 µM (inconclusive)
SMILES: CCOc1cc(/C=N/NC(=O)c2cc(C)[nH]n2)ccc1OC(=O)c1ccc([N+](=O)[O-])cc1

- AC50 (Cytochrome P450 2C19; read-out: AC50): 0.316 µM (inconclusive)
- AC50 (Cytochrome P450 3A4): 25.1 µM (inconclusive)
- AC50 (Cytochrome P450 2C9): 25.1 µM (inconclusive)
SMILES: COc1ccc(Oc2ncc3ncc(=O)n(C4CC4)c3n2)cc1

- AC50 (Cytochrome P450 3A4): 7.08 µM (inconclusive)
SMILES: O=C1CN(c2nc(-c3ccccc3)c3cc(Br)ccc3n2)c2ccccc2N1

- AC50 (Cytochrome P450 3A4): 15.8 µM (inconclusive)
SMILES: COc1ccc(NC(=O)N2CC3(CCN(S(=O)(=O)c4ccccc4)CC3)C2)cc1

- IC50 [4]: 94.7 µM (active)
SMILES: CN(C)CCCNCC(=O)c1c(-c2ccccc2)n(C)c2ccccc12

- AC50 (Cytochrome P450 2C9): 39.8 µM (inconclusive)
SMILES: Cc1cccc(C(=O)N/N=C/c2ccc(OCC(=O)N3CCCCC3)cc2)c1

- AC50 (Cytochrome P450 3A4): 3.98 µM (inconclusive)
SMILES: Cc1cc(N(CN2CCCC2=O)C(=O)c2ccc(F)cc2)no1

- AC50 (Cytochrome P450 2C19; read-out: AC50): 0.316 µM (inconclusive)
- AC50 (Cytochrome P450 3A4): 12.6 µM (inconclusive)
SMILES: CC(=O)Nc1cc(C(F)(F)F)ccc1Oc1cccc(Br)c1

- IC50 [4]: 32.6 µM (active)
SMILES: N#Cc1ccccc1S(=O)(=O)N1CCN(C(=O)Cc2coc3cc(O)ccc23)CC1

- AC50 (Cytochrome P450 2C19; read-out: AC50): 39.8 µM (inconclusive)
SMILES: CCNc1ncc2nc(-c3ccccc3)c(=O)n(Cc3cccc(OC)c3)c2n1

- AC50 (Cytochrome P450 2C9): 0.794 µM (inconclusive)
SMILES: COc1ccc(Cc2nnc(NC(=O)c3cccc([N+](=O)[O-])c3C)s2)cc1

- AC50 (Cytochrome P450 2C9): 0.891 µM (inconclusive)
SMILES: Cc1ccc(NC(=O)CCC(=O)c2ccc(F)cc2)cc1Cl

- AC50 (Cytochrome P450 3A4): 10 µM (inconclusive)
SMILES: CCCC/C=C/C(NC(=O)c1ccc(C(F)(F)F)cc1)c1ccccc1 (stereo not drawn)

- AC50 (Cytochrome P450 2C9): 0.282 µM (inconclusive)
SMILES: NC(S)=Nc1cc2ccccc2c2ccccc12

- IC50 [4]: 54 µM (active)
SMILES: O=C1CSC(=S)N1Nc1ccccc1

- IC50 [4]: 38 µM (active)
SMILES: CCN(CC)c1ccc(NC(=O)COC(=O)Cc2ccsc2)cc1

More lines, now with the values behind:

SMILES: CC(C)CC(=O)c1c(O)c(C=O)c(O)c2c1O[C@@]1(C)[C@@H](C2)C[C@H]2C[C@@H]1C2(C)C [EUGLOBAL G1]
- AC50 [1]: 2.68 µM (active)

SMILES: O=[N+]([O-])c1ccc(CNCCc2ccccc2)cc1
- EC50 [2]: 0.528 µM (active)
- EC50 [3]: > 60 µM (not active)

SMILES: CC(=O)Nc1ccc(OCC(O)CN2CCN(c3ccc(C)c(Cl)c3)CC2)cc1 (stereo not drawn)
- AC50 [1]: 7.01 µM (active)

SMILES: O=c1[nH]c2ccccc2n2c(S)nnc12
- IC50 [4]: 109 µM (active)

SMILES: O=C(Nc1cccc2ccccc12)c1ccc([N+](=O)[O-])s1
- EC50 [2]: 0.407 µM (active)
- EC50 [3]: > 60 µM (not active)

SMILES: Fc1ccc(N2CCN(c3ncnc4c3nnn4Cc3ccccc3Cl)CC2)cc1
- EC50 [2]: 2.46 µM (active)
- EC50 [3]: > 60 µM (inconclusive)

SMILES: CCNc1nc(NCC)nc(N/N=C/c2ccc(O)c(O)c2)n1
- IC50 [4]: 45.5 µM (active)

SMILES: C/C(=N\NC(=O)c1cc2ccccc2cc1O)c1cc2ccccc2o1
- EC50 [5]: 1.77 µM (active)
- EC50 (Streptococcus): 4.11 µM (active)

SMILES: Nc1c(C(O)(C(F)(F)F)C(F)(F)F)cc(C(O)(C(F)(F)F)C(F)(F)F)c2ccccc12
- AC50 [1]: 2.46 µM (active)

SMILES: CC(=O)[C@@H]1CC[C@@H]2[C@@H]3C[C@H](C)C4=CC(=O)CC[C@@]4(C)[C@H]3[C@H](O)C[C@]21C
- AC50 (Cytochrome P450 3A4): 7.94 µM (inconclusive)

SMILES: Cc1ccc(S(=O)(=O)CCCS(=O)(=O)c2ccc(C)cc2)cc1
- AC50 (Cytochrome P450 2C9): 5.01 µM (inconclusive)

SMILES: Cn1c(=O)[nH]c(N)c(Br)c1=O
- IC50 [4]: 84.3 µM (active)

SMILES: CCOC(=O)c1c(O)nc(O)c(CC)c1C
- AC50 (Cytochrome P450 2C19; read-out: AC50): 2.51 µM (inconclusive)

SMILES: OC(CN1CCN(c2ccccn2)CC1)Cn1c2ccc(Cl)cc2c2cc(Cl)ccc21 (stereo not drawn)
- AC50 [1]: 3.21 µM (active)

SMILES: C/N=c1\scc(-c2ccc(OC)cc2)n1/N=C(\C)c1cccnc1
- EC50 [2]: 1.79 µM (active)
- EC50 [3]: > 30 µM (not active)

SMILES: CC(C)c1nc2sc3ccccc3c(=O)c2c(=O)n1Cc1ccccc1
- AC50 [1]: 0.796 µM (active)

SMILES: Cc1nc2c([nH]1)c(=O)n(C)c(=O)n2Cc1ccco1 [FURAFYLLINE]
- AC50 (Cytochrome P450 2C19): inconclusive

SMILES: COC(=O)C(C)(C(=O)OC)c1ccc([N+](=O)[O-])cn1
- AC50 (Cytochrome P450 2C19; read-out: AC50): 39.8 µM (inconclusive)

SMILES: CCCCNC(=O)C1C2C=CC3(CN(Cc4ccccc4Cl)C(=O)C13)O2 (stereo not drawn)
- AC50 (Cytochrome P450 2C9): 17.8 µM (inconclusive)

SMILES: Fc1ccccc1Cc1noc(CN2CCN(Cc3ccc4c(c3)OCO4)CC2)n1
- EC50 [2]: 1.03 µM (active)
- EC50 [3]: > 60 µM (not active)

SMILES: C/C(=C\C(=O)c1ccccc1)Nc1ccc(N2CCOCC2)cc1
- EC50 [2]: 6.78 µM (active)
- EC50 [3]: > 60 µM (not active)

SMILES: O=c1c2c(-c3ccc(Cl)cc3)csc2nc2n1CCC2
- AC50 (Cytochrome P450 3A4): 12.6 µM (inconclusive)

SMILES: O=C(N/N=C/c1ccc(Cl)c([N+](=O)[O-])c1)c1cc(-c2ccccc2)nc2ccccc12
- AC50 [1]: 2.08 µM (active)

SMILES: Cc1ccc(-c2nc(C(=O)NCCCN3CCOCC3)cc3c2[nH]c2ccccc23)cc1
- EC50 [2]: 1.36 µM (active)
- EC50 [3]: > 30 µM (not active)

SMILES: O=C(c1ccco1)N1CCN(C(=O)C2(S(=O)(=O)c3ccc(Cl)cc3)CC2)CC1
- AC50 (Cytochrome P450 2C19; read-out: AC50): 28.2 µM (inconclusive)
- AC50 (Cytochrome P450 3A4): 25.1 µM (inconclusive)
- AC50 (Cytochrome P450 2C9): 17.8 µM (inconclusive)

SMILES: CC(=O)Nc1ccc(S(=O)(=O)c2ccc([N+](=O)[O-])cc2)cc1
- EC50 [2]: 0.661 µM (active)
- EC50 [3]: > 60 µM (not active)

SMILES: Brc1ccc(OCCn2ccnc2)cc1
- EC50 [2]: 3.15 µM (active)
- EC50 [3]: > 60 µM (not active)

SMILES: CCCCN1CSC(=S)N(Cc2ccccc2)C1
- AC50 (Cytochrome P450 3A4): 3.16 µM (inconclusive)
- AC50 (Cytochrome P450 2C9): 7.94 µM (inconclusive)

SMILES: C/C(Cn1cnc([N+](=O)[O-])n1)=N/NC(=O)COc1c(Cl)cc(Cl)cc1Cl
- EC50 [2]: 0.143 µM (active)
- EC50 [3]: > 60 µM (not active)

SMILES: O=C(Nc1ccccc1)N1CCCC2(CCN(C(=O)c3cnccn3)CC2)C1
- AC50 (Cytochrome P450 3A4): 25.1 µM (inconclusive)

SMILES: O=C(O)/C(=C\c1ccncc1)c1cccc2ccccc12
- AC50 (Cytochrome P450 2C9): 3.16 µM (inconclusive)

SMILES: Cc1ccc(CNC(=O)CCC2CCCN(Cc3cccc4ncccc34)C2)o1 (stereo not drawn)
- EC50 [2]: 0.193 µM (active)
- EC50 [3]: > 60 µM (inconclusive)

SMILES: O=C(NCC(c1ccco1)N1CCCC1)c1ccccc1Sc1ccc(C(F)(F)F)cc1[N+](=O)[O-] (stereo not drawn)
- EC50 [2]: 1.64 µM (active)
- EC50 [3]: > 60 µM (not active)

SMILES: CC(C)CC(=O)Nc1sc2c(c1C#N)CC(C)(C)NC2(C)C
- AC50 (Cytochrome P450 2C19; read-out: AC50): 28.2 µM (inconclusive)
- AC50 (Cytochrome P450 3A4): 14.1 µM (inconclusive)

SMILES: Oc1cc(C(F)(F)F)nc2c(OC(F)(F)F)cccc12
- AC50 [1]: 22.4 µM (active)
